Experimental data reported in patent US11040021B2, “Treatment of diseases associated with hepatic stellate cell activation using ammonia-lowering therapies” (UCL Business PLC, priority 2014, dated 2021).

Legend:
[1] = system: primary human hepatic stellate cells (hHSCs); assay: hHSC recovery with glutamine and GS inhibition (MSO) under ammonia; format: cell-based
Procedure: (§1) Primary human hepatic stellate cells (hHSCs) were cultured. Effects of an NH4Cl challenge (0.1-10 mM over 24-72 hrs) on hHSC proliferation (BrdU), metabolic activity (MTS assay), viability (Neutral-Red), ultrastructural changes (TE-M) and gene/protein expression (q-PCR/Western blot) were studied. To test recovery, ammonia treated cells were replenished with glutamine and in separate experiments, pre-treated with L-methionine-sulfoximine (MSO-GS inhibitor) to determine the importance of glutamine synthetase (GS).

[2] = system: SOD2; assay: SOD2 mRNA expression in hHSC; format: cell-based, human
[3] = system: primary human hepatic stellate cells (hHSCs)
Procedure: as §1
(§2) In this example, primary human HSCs (hHSCs) were isolated and cultured. Proliferation (BrdU), metabolic activity (MTS), morphology (TEM, light- and immunofluorescence microscopy), HSC activation markers, ability to contract, and changes in oxidative status (ROS) were evaluated to identify effects of ammonia challenge (50 μM, 100 μM, 300 μM) over 24-72 hours.
(§3) Primary hHSCs were isolated from wedge sections of liver tissue, obtained from patients undergoing surgery in the Royal Free Hospital after giving informed consent (EC01.14-RF). Cells were isolated according to Mederacke et al. (Nature Protocols 2015, 10:305-315) with modifications for human liver as described in Rombouts K, Carloni V. Determination and characterization of tetraspanin-associated phosphoinositide-4 kinases in primary and neoplastic liver cells. In: Waugh MG, editor. Lipid Signaling Protocols, 2 ed. New York: Springer Science+Business Media; 2015. p. 203-212). Briefly, 10 g of total human liver tissue was digested with 0.01% Collagenase, 0.05% Pronase and 0.001% DNase I without performing perfusion. The homogenate was filtered through a 100 μm cell strainer and the flow-through was centrifuged at 50×g for 2 minutes at 4° C. After washing the supernatant, gradient centrifugation was performed at 1400×g for 17 minutes at 4° C. using an 11.5% Optiprep gradient. Finally, the interface was collected and washed. Purity of hHSCS was established by detection of CD140b (PDGFRbeta), CD29 (Integrin beta 1) and Cytoglobin (CYGB).
The obtained HSCs were cultured in RPMI supplemented with 20% fetal bovine serum (FBS), GLUTAMAX, nonessential amino acids 1×, 1.0 mM sodium pyruvate, 1× antibiotic-antimycotic (all Life Technologies), referred to as complete HSC medium hereinafter. Experiments described in this study were performed on hHSCs of at least three independent cell preparations between passage 3 and 8.
Cells were seeded (density 26×10^3/cm^2) under basic serum-rich conditions (CM complete medium) for 24 hours, followed by serum deprivation for another 24 hours (SFM). Exogenous glutamine was removed from the culture medium to avoid uncontrolled generation of ammonia. Specific treatment with NH4Cl treatments were replaced daily for the duration of the experiment.

[4] = system: α-SMA, vimentin, PDGF-Rβ, Myosin IIa and IIb, p-38 MAPK, Collagen type I
Procedure: as §1, §2

[5] = system: MMP2, TIMP1, Interleukin-1β, Interleukin 6, Interleukin 8
Procedure: as §1, §2

[6] = system: primary human hepatic stellate cells (hHSCs); settings: after 3 hours, sustained after 24 hours, vs control
Procedure: as §2

[7] = system: primary human hepatic stellate cells (hHSCs); settings: up to 72 hours
Procedure: The formation of reactive oxygen species (ROS) was measured using Image-IT™ LIVE Green Reactive Oxygen Species Detection Kit. In FIG. 3B, mean fluorescence intensity (MFI) of ROS signal was normalized according to the number of cells (Hoechst 33342), and expressed as percentage of control.
as §2

[8] = system: primary human hepatic stellate cells (hHSCs); remark: listed apart in the source
Source text: as §3
The obtained HSCs were cultured in RPMI supplemented with 20% fetal bovine serum (FBS), GLUTAMAX, nonessential amino acids 1×, 1.0 mM sodium pyruvate, 1× antibiotic-antimycotic (all Life Technologies), referred to as complete HSC medium hereinafter. […]

[9] = Example 1, NH4Cl challenge 0.1-10 mM over 24-72 hrs
[10] = different concentrations of ammonia (50, 100, 300 μM), 72 hours
[11] = in comparison to MSO treatment only
[12] = increasing concentrations of ammonia

NC(=O)CC[C@H](N)C(=O)O [L-glutamine]
Ammonia-induced ER enlargement on replenishing the culture with L-glutamine ([1]; Example 1): reversible

CS(=N)(=O)CC[C@H](N)C(=O)O (stereo partly drawn) [MSO, L-Methionine sulfoximine]
Effect of MSO together with hyperammonemia on hHSC ([1]; Example 1, MSO pre-treatment): induced cell detachment and prevention of recovery

CC(=O)N[C@@H](CS)C(=O)O [NAC, N-acetyl cysteine]
Ammonia-induced SOD2 mRNA expression after NAC pre-treatment ([2]; 3 hours of ammonia treatment): no impact
Ammonia-induced SOD2 mRNA expression after NAC pre-treatment ([2]; 24 hours of ammonia treatment): almost completely abolished

N [ammonia, NH4Cl]
Filamentous actin in the cytoskeleton (TRITC-Phalloidin staining) ([3]; 72 hours): dose-dependent disruption of filamentous actin
Intracellular ER (ultrastructure) ([3]; Example 1): dose-dependent intracellular ER enlargement
Metabolic activity [3, 9]: time dependent decreases
Proliferation [3, 9]: time dependent decreases
Cell phenotype ([3]; Example 1, even at 50-100 umol/L): cell swelling and a myo-fibroblast-like phenotype
Cell proliferation (BrdU assay) [3, 10]: significant inhibition
Metabolic activity (MTS assay) [3, 10]: significant inhibition
Ultrastructural change (TEM) ([3]; dose-dependent, FIG. 2A): dramatic dose-dependent change in the cytosol and marked presence of translucent vacuoles
Metabolic activity after MSO pretreatment followed by ammonia [3, 11]: did not further inhibit
Proliferation after MSO pretreatment followed by ammonia [3, 11]: did not further inhibit
SOD2 mRNA expression ([2]; ammonia, after 3 hours, sustained at 24 hours): strong increase
P-38 MAPK expression [4]: dose-dependent response
PDGFR-β protein [4]: significant up-regulation
Vimentin synthesis ([4]; 300 μM ammonia): increased
α-SMA protein expression ([4]; FIG. 4A): significantly increase
Myosin IIa protein [4, 12]: significantly modulated
Myosin IIb protein [4, 12]: significantly modulated
Collagen type I protein ([4]; not statistically significant): tendency to increase
Interleukin 8 mRNA expression [5]: did not modify
MMP2 mRNA expression ([5]; FIG. 4B): strong and significant up-regulation
TIMP1 mRNA expression ([5]; FIG. 4B): down-regulated
Interleukin-1β mRNA expression ([5]; ammonia 300 μM for 72 hours): significantly induced
Interleukin 6 mRNA expression level ([5]; ammonia at 50 μM and 100 μM): significantly up-regulated
Contraction of hHSCs cultured on collagen gels [6]: significant ability to contract
ROS production [7]: produced significant reactive oxygen species
Cell death (Cell Death Detection ELISA) [8]: did not cause cell death
